Assay results from PubChem BioAssay (NCI).
Where “and” joins values, the source holds several entries; their conditions need not be identical. Identical values can stand only once.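 All cell lines were grown in 96-well plates and treated with compound for 48 hours. GI50: concentration for 50% inhibition of growth. TGI denotes the concentration required for complete inhibition of growth.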

Legend:
Test in all cases: DTP human tumour cell line panel, 48 h
COLO 205 colon = tested on: COLO 205 colon
UO-31 renal = tested on: UO-31 renal
HL-60(TB) leukemia = tested on: HL-60(TB) leukemia
HCT-15 colon = tested on: HCT-15 colon
OVCAR-8 ovarian = tested on: OVCAR-8 ovarian
OVCAR-4 ovarian = tested on: OVCAR-4 ovarian
HCT-116 colon = tested on: HCT-116 colon
LOX IMVI melanoma = tested on: LOX IMVI melanoma
SNB-75 CNS = tested on: SNB-75 CNS
MCF7 breast = tested on: MCF7 breast

SMILES	TGI (COLO 205 colon)	TGI (UO-31 renal)	TGI (HL-60(TB) leukemia)	TGI (HCT-15 colon)	TGI (OVCAR-8 ovarian)	TGI (OVCAR-4 ovarian)	TGI (HCT-116 colon)	TGI (LOX IMVI melanoma)	TGI (SNB-75 CNS)	GI50 (COLO 205 colon)	GI50 (UO-31 renal)	GI50 (HCT-15 colon)	GI50 (MCF7 breast)	TGI (MCF7 breast)	GI50 (OVCAR-8 ovarian)	GI50 (OVCAR-4 ovarian)	GI50 (HCT-116 colon)	GI50 (HL-60(TB) leukemia)	GI50 (LOX IMVI melanoma)	GI50 (SNB-75 CNS)
CN(C)CCNC(=O)c1c2ccccc2cc2ccccc12	48.3 µM	> 100 µM	88.5 µM	> 100 µM	> 100 µM	> 100 µM	> 100 µM	30.1 µM	> 100 µM	–	–	–	–	–	–	–	–	–	–	–
Cc1cccc(C(C)C)c1NC(=O)CCl	> 100 µM	> 100 µM	> 100 µM	> 100 µM	–	76.6 µM	> 100 µM	> 100 µM	> 100 µM	–	–	–	–	–	–	–	–	–	–	–
CCOC(=O)C(=O)Nc1ccccc1OCC	–	> 100 µM	> 100 µM	–	> 100 µM	> 100 µM	> 100 µM	> 100 µM	–	–	–	–	–	–	–	–	–	–	–	–
CCOC(OCC)C(CC)[Se]c1ccccc1 (stereo unspecified)	> 100 µM	> 100 µM	19 µM	35 µM	> 100 µM	> 100 µM	> 100 µM	21.6 µM	> 100 µM	–	–	–	–	–	–	–	–	–	–	–
O=C(O)c1cn(C2CC2)c2cc(N3CCNCC3)c(F)cc2c1=O	> 100 µM	> 100 µM	–	> 100 µM	> 100 µM	> 100 µM	> 100 µM	–	–	> 100 µM	> 100 µM	> 100 µM	> 100 µM	> 100 µM	> 100 µM	> 100 µM	> 100 µM	–	–	–
Nc1c(C(=O)NC23CC4CC(CC(C4)C2)C3)[n+]([O-])c2ccccc2[n+]1[O-]	> 100 µM	> 100 µM	> 100 µM	> 100 µM	> 100 µM	> 100 µM	–	> 100 µM	> 100 µM	–	–	–	–	–	–	–	–	–	–	–
O=S1c2ccccc2NC(c2ccc3ccccc3c2)CC1c1ccccc1 (stereo unspecified)	74.4 µM	47.9 µM	55.3 µM	54 µM	57 µM	53.9 µM	–	33.7 µM	86.6 µM	–	–	–	–	–	–	–	–	–	–	–
CC[C@H]1CN(C)[C@H]2Cc3c([nH]c4ccccc34)C(=O)C[C@H]1C2C(=O)OC (stereo partly specified)	> 100 µM	> 100 µM	> 100 µM	> 100 µM	> 100 µM	> 100 µM	> 100 µM	> 100 µM	–	–	–	–	–	> 100 µM	–	–	–	–	–	–
CN1C(=O)CCC1c1ccc2c(c1)oc(=O)n2C (stereo unspecified)	> 100 µM	> 100 µM	> 100 µM	> 100 µM	> 100 µM	> 100 µM	> 100 µM	> 100 µM	> 100 µM	–	–	–	–	–	–	–	–	–	–	–
CNc1ccc([N+](=O)[O-])c2c(NCCCN(C)C)ccnc12	> 100 µM	> 100 µM	> 100 µM	> 100 µM	> 100 µM	> 100 µM	> 100 µM	> 100 µM	–	–	–	–	–	–	–	–	–	–	–	–
CCOc1ccc(NCC2CC/C(=C\c3ccc(Cl)cc3)C2=O)cc1 (stereo unspecified)	> 52.5 µM	> 58.5 µM	37.3 µM	23.7 µM	> 52.8 µM	> 75.3 µM	> 62.9 µM	35.4 µM	> 76.5 µM	–	–	–	–	–	–	–	–	–	–	–
COc1ccc(OC(C)C(=O)O)c2c1CCCC2=O (stereo unspecified)	> 100 µM	> 100 µM	> 100 µM	> 100 µM	> 100 µM	> 100 µM	> 100 µM	> 100 µM	> 100 µM	–	–	–	–	–	–	–	–	–	–	–
O=c1ccn(C2(CO)C=C(CO)C(O)C2O)c(=O)[nH]1 (stereo unspecified)	> 25.7 µM	> 25.7 µM	> 25.7 µM	> 25.7 µM	> 25.7 µM	> 25.7 µM	> 25.7 µM	–	> 25.7 µM	–	–	–	–	–	–	–	–	–	–	–
c1ccc2cc(C[n+]3ccn(Cc4ccc5ccccc5n4)c3)ccc2c1	0.738 µM and 5.07 µM	25.4 µM and > 100 µM	0.653 µM and 3.05 µM	27.7 µM and > 100 µM	10.5 µM and 15 µM	4.8 µM and 15.2 µM	6.86 µM and 15.8 µM	1.68 µM and 11.4 µM	–	0.239 µM and 1.72 µM	10.6 µM and 35.8 µM	12.3 µM and 53.5 µM	0.353 µM and 2.98 µM	2.36 µM and 13.4 µM	0.754 µM and 3.72 µM	0.26 µM and 1.43 µM	0.413 µM and 3.29 µM	0.214 µM and 0.827 µM	0.435 µM and 2.9 µM	–
COc1ccccc1NC(=O)C1=C(C)NC(C)=C(C(=O)Nc2ccccc2OC)C1c1cccc2ccccc12	> 100 µM	> 100 µM	> 100 µM	> 100 µM	> 100 µM	41.5 µM	> 100 µM	> 100 µM	98.8 µM	–	–	–	–	–	–	–	–	–	–	–
OCC(O)COc1c(Cl)cc(Cl)cc1Cl (stereo unspecified)	> 100 µM	> 100 µM	> 100 µM	> 100 µM	> 100 µM	> 100 µM	> 100 µM	> 74.1 µM	> 100 µM	–	–	–	–	–	–	–	–	–	–	–
ClC1c2ccccc2C2(c3ccccc3)OOC1(c1ccccc1)O2 (stereo unspecified)	4.58 µM	3.06 µM	0.309 µM	3.24 µM	5.16 µM	3.08 µM	–	1.31 µM	3.27 µM	–	–	–	–	–	–	–	–	–	–	–

SMILES	TGI (COLO 205 colon)	TGI (UO-31 renal)	TGI (HL-60(TB) leukemia)	TGI (HCT-15 colon)	TGI (OVCAR-8 ovarian)	TGI (OVCAR-4 ovarian)	TGI (HCT-116 colon)	TGI (LOX IMVI melanoma)	TGI (SNB-75 CNS)	GI50 (COLO 205 colon)	GI50 (UO-31 renal)	GI50 (HCT-15 colon)	GI50 (MCF7 breast)	TGI (MCF7 breast)	GI50 (OVCAR-8 ovarian)	GI50 (OVCAR-4 ovarian)	GI50 (HCT-116 colon)	GI50 (HL-60(TB) leukemia)	GI50 (LOX IMVI melanoma)	GI50 (SNB-75 CNS)
C=C(C)[C@@H]1CC[C@]2(C(=O)O)CC[C@]3(C)[C@H](CC[C@@H]4[C@@]5(C)C/C(=C/c6cccc(I)c6)C(=O)C(C)(C)[C@@H]5CC[C@]43C)[C@@H]12	–	5.17 µM	8.58 µM	10.2 µM	14.3 µM	8.28 µM	3.53 µM	3.58 µM	–	–	1.72 µM	2.63 µM	2.64 µM	10.5 µM	2.87 µM	2.38 µM	1.78 µM	2.6 µM	1.72 µM	–
CN(C(=O)C12C3C4C1C1C2C3C41C(O)C(C)(C)C)C(C)(C)C (stereo unspecified)	> 100 µM	> 100 µM	> 100 µM	–	> 100 µM	> 100 µM	> 100 µM	> 100 µM	> 100 µM	–	–	–	–	–	–	–	–	–	–	–
NC(CCc1ncc(-c2ccccc2)s1)C(=O)O (stereo unspecified)	> 100 µM	> 100 µM	> 100 µM	> 100 µM	> 100 µM	–	> 100 µM	> 100 µM	> 100 µM	–	–	–	–	–	–	–	–	–	–	–
Oc1ccc2ccccc2c1N=Nc1ccc(Cl)cc1	> 100 µM	> 100 µM	> 100 µM	> 100 µM	> 100 µM	> 100 µM	> 100 µM	78.7 µM	> 100 µM	–	–	–	–	–	–	–	–	–	–	–
O=C1CCCC(O)=C1SC1=C(O)CCCC1=O	> 100 µM	> 100 µM	> 100 µM	> 100 µM	> 100 µM	> 100 µM	> 100 µM	> 100 µM	> 100 µM	–	–	–	–	–	–	–	–	–	–	–
CC(O)C(NC(=O)c1ccccc1)C(=O)N(Cc1ccccc1)Cc1ccccc1 (stereo unspecified)	> 100 µM	> 100 µM	> 100 µM	> 100 µM	> 100 µM	> 100 µM	–	> 100 µM	> 100 µM	–	–	–	–	–	–	–	–	–	–	–
Cc1cc(NCc2cc(Nc3ccnc4cc(Cl)ccc34)ccc2F)nc(N2CCSCC2)n1	–	2.87 µM	–	3.54 µM	9.23 µM	5.51 µM	2.46 µM	2.79 µM	2.9 µM	–	1.38 µM	1.54 µM	1.64 µM	4.18 µM	2.54 µM	1.82 µM	1.18 µM	–	1.47 µM	1.32 µM
CCCC(=O)c1ccc(=O)n(C)c1	> 100 µM	> 100 µM	> 100 µM	> 100 µM	> 100 µM	> 100 µM	> 100 µM	> 100 µM	> 100 µM	–	–	–	–	–	–	–	–	–	–	–
O=C1CCNC(=O)NC1	> 100 µM	> 100 µM	> 100 µM	> 100 µM	> 100 µM	> 100 µM	> 100 µM	> 100 µM	> 100 µM	–	–	–	–	–	–	–	–	–	–	–
COc1ccc2c(c1)C(=O)c1c-2c(N2CCN(C(=O)CNCCN(C)C)CC2)nc2ccccc12	3.2 µM	2.78 µM	6.31 µM	5.44 µM	17.5 µM	16.7 µM	2.7 µM	3.33 µM	–	1.65 µM	1.38 µM	2.3 µM	1.62 µM	3.11 µM	3.9 µM	5.62 µM	1.22 µM	2.4 µM	1.71 µM	–
N#Cc1cc([N+](=O)[O-])ccc1NC(=O)C(=O)C(C(=O)c1ccc2ccccc2c1)C1OCc2ccccc21 (stereo unspecified)	27.8 µM	26.5 µM	46.7 µM	37.7 µM	20.9 µM	> 55.2 µM	16.2 µM	29.5 µM	16.1 µM	–	–	–	–	–	–	–	–	–	–	–
c1ccc2c(c1)Sc1ccccc1N2C1CN2CCC1CC2 (stereo unspecified)	34.5 µM	39.6 µM	32 µM	34 µM	32.5 µM	35.2 µM	28.8 µM	26.8 µM	25.4 µM	–	–	–	–	–	–	–	–	–	–	–
CC(=O)OCCOCNC(=S)N/N=C(\C)c1cccs1	> 100 µM	> 100 µM	> 100 µM	> 100 µM	> 100 µM	> 100 µM	> 100 µM	> 100 µM	> 100 µM	–	–	–	–	–	–	–	–	–	–	–
CC(C)CN1CC(C)C(=O)NC1=O (stereo unspecified)	> 100 µM	> 100 µM	> 100 µM	–	> 100 µM	> 100 µM	–	> 100 µM	–	–	–	–	–	–	–	–	–	–	–	–
O=C(Oc1ccc2c(-c3ccccc3)c(C(=O)Nc3ccc(Cl)cc3)c(=O)oc2c1)c1ccccc1	> 100 µM	> 100 µM	> 100 µM	> 100 µM	> 100 µM	–	> 100 µM	> 100 µM	> 100 µM	–	–	–	–	–	–	–	–	–	–	–
C[N+](C)(C)CC(CC(=O)[O-])C1CC1 (stereo unspecified)	> 100 µM	> 100 µM	> 100 µM	> 100 µM	> 100 µM	> 100 µM	–	> 100 µM	> 100 µM	–	–	–	–	–	–	–	–	–	–	–
C=C1CCC2C(C)(CO)C(O)CCC2(C)C1C/C=C1/CCOC1=O (stereo unspecified)	> 100 µM	> 100 µM	> 100 µM	> 100 µM	> 100 µM	> 100 µM	> 100 µM	> 100 µM	> 100 µM	–	–	–	–	–	–	–	–	–	–	–
